{"source": "patent US20250313533A1", "about": "“QUINOLINE CARBOXYLIC ACID ESTER COMPOUND AND PREPARATION METHOD AND USE THEREOF” (priority 2019, published 2025)", "key": {"[1]": {"test_system": "pathogenic bacteria causing bacterial angular leaf spot in cucumbers", "test": "In vitro bactericidal activity, bacterial angular leaf spot in cucumbers", "format": "cell-based, pseudomonas"}, "[2]": {"test_system": "soft rot in Chinese cabbages", "test": "Field test for controlling soft rot in Chinese cabbages", "format": "in vivo, Chinese cabbage", "conditions": "7 days after the last application", "experimental": "(§1) In October 2019, tests were carried out in fields of Chinese cabbage, wild cabbage and lettuce in Tai'an, Shandong. The doses of the compounds 152 and 282 of the present disclosure (both prepared as dispersible granules with a mass fraction of 10%) used were 16.87 ga.i./hm^2 and 33.75 ga.i./hm^2, and the control agents used were 3% (by weight) wettable powder of zhongshengmycin and 33.5% (by weight) aqueous suspension of oxine-copper (both were commercially available). The dose of zhongshengmycin was 67.5 ga.i./hm^2, and the dose of oxine-copper was 337.5 ga.i./hm^2. Test and control agents were arranged in randomized blocks. Plot area was 15 m^2. Treatment was repeated 3 times. The route of application was spraying on stem and leaves. The application was performed 2 times in total at an interval of 7 days, and the efficacy investigation was performed 7 days after the last application. During the investigation, sampling was carried out at 5 points in each plot. Disease conditions of soft rot in Chinese cabbages, soft rot in lettuces and soft rot in wild cabbages were recorded according to the relevant technical standard of Pesticide Guidelines for the Field Efficacy Trials GB/T17980.114-2004, and the incidence rate of plants was calculated to further evaluate the control effect."}, "soft rot in lettuces": {"test_system": "soft rot in lettuces", "test": "Field test for controlling soft rot in lettuces", "format": "in vivo, lettuce", "conditions": "7 days after the last application", "experimental": "as §1"}, "[3]": {"test_system": "stem rot in sweet potatoes"}, "[4]": {"test_system": "pathogenic bacteria causing stem rot in sweet potatoes", "test": "In vitro bactericidal activity, stem rot in sweet potatoes", "format": "cell-based, dikia"}, "[5]": {"test_system": "pathogenic bacteria causing fire blight in pears", "test": "In vitro bactericidal activity, fire blight in pears", "format": "cell-based, erwinia"}, "[6]": {"test_system": "pathogenic bacteria causing black shank in potatoes", "test": "In vitro bactericidal activity, black shank in potatoes", "format": "cell-based"}, "[7]": {"test_system": "soft rot in wild cabbages", "test": "Field test for controlling soft rot in wild cabbages", "format": "in vivo, wild cabbage", "conditions": "7 days after the last application", "experimental": "as §1"}, "[8]": {"test_system": "bacterial wilt in tobacco", "conditions": "seed soaking"}, "[9]": {"test_system": "pathogenic bacteria causing black rot in Chinese cabbages", "test": "In vitro bactericidal activity, black rot in Chinese cabbages", "format": "cell-based, xanthomonas"}, "[10]": {"test_system": "fruit blotch in watermelons"}, "[11]": {"test_system": "soft rot in Chinese cabbages"}, "[12]": {"test_system": "pathogenic bacteria causing bacterial wilt in cassava", "test": "organism not typed", "format": "cell-based", "conditions": "in vitro"}, "[13]": {"test_system": "pathogenic bacteria causing bacterial blight in rice", "test": "whole plant or invertebrate", "format": "cell-based, xanthomonas", "conditions": "in vitro"}, "[14]": {"test_system": "pathogenic bacteria causing fruit blotch in watermelons", "test": "In vitro bactericidal activity, fruit blotch in watermelons", "format": "cell-based, acidovorax"}, "black shank in potatoes": {"test_system": "black shank in potatoes", "test": "Living crops in vivo protective activity, potatoes (root irrigation)", "experimental": "Root irrigation was carried out on the potatoes for tests according to the designed concentration of the agents. The dosage for each plant was 200 mL and was kept consistent (also for the control). The black shank bacteria were inoculated on the second day after the application. The results were investigated according to the disease condition."}, "[15]": {"test_system": "pathogenic bacteria causing bacterial wilt in tobacco", "test": "whole plant or invertebrate", "format": "cell-based, ralstonia", "conditions": "in vitro"}, "[16]": {"conditions": "dose 337.5 g a.i./hm^2, 2 sprays"}, "[17]": {"conditions": "dose 67.5 g a.i./hm^2, 2 sprays"}}, "note": "“And” between values parts separate entries of the source, which are not always exact repeats. Equal values may be shown once. Read-outs that look alike come from different tables or passages of the source."}
{"compound": "[Cu+2].[O-]c1cccc2cccnc12.[O-]c1cccc2cccnc12", "note": "[oxine-copper, reference compound]", "values": [{"measurement": "inhibitory rate", "setting": "[1]; dosage 1 ppm", "result": 0, "unit": "%"}, {"measurement": "inhibitory rate", "setting": "[1]; dosage 5 ppm", "result": 2, "unit": "%"}, {"measurement": "Control effect (%)", "setting": "[2]; [16]", "result": 13, "unit": "%"}, {"measurement": "Control effect (%)", "setting": "soft rot in lettuces; [16]", "result": 9, "unit": "%"}, {"measurement": "efficacy against stem rot in sweet potatoes", "setting": "[3]; in vivo", "result": "20% and 13%"}, {"measurement": "inhibitory rate", "setting": "[4]; dosage 1 ppm", "result": 2, "unit": "%"}, {"measurement": "inhibitory rate", "setting": "[4]; dosage 5 ppm", "result": 7, "unit": "%"}, {"measurement": "inhibitory rate", "setting": "[5]; dosage 1 ppm", "result": 0, "unit": "%"}, {"measurement": "inhibitory rate", "setting": "[5]; dosage 5 ppm", "result": 3, "unit": "%"}, {"measurement": "inhibitory rate", "setting": "[6]; dosage 1 ppm", "result": 0, "unit": "%"}, {"measurement": "inhibitory rate", "setting": "[6]; dosage 5 ppm", "result": 3, "unit": "%"}, {"measurement": "Control effect (%)", "setting": "[7]; [16]", "result": 11, "unit": "%"}, {"measurement": "efficacy against bacterial wilt in tobacco", "setting": "[8]; dosage 5 ppm", "result": 5, "unit": "%"}, {"measurement": "efficacy against bacterial wilt in tobacco", "setting": "[8]; dosage 10 ppm", "result": 11, "unit": "%"}, {"measurement": "inhibitory rate", "setting": "[9]; dosage 1 ppm", "result": 0, "unit": "%"}, {"measurement": "inhibitory rate", "setting": "[9]; dosage 5 ppm", "result": 5, "unit": "%"}, {"measurement": "efficacy against fruit blotch in watermelons", "setting": "[10]; in vivo", "result": "22% and 15%"}, {"measurement": "efficacy against soft rot in Chinese cabbages", "setting": "[11]; in vivo", "result": "16% and 6%"}, {"measurement": "inhibitory rate", "setting": "[12]; dosage 1 ppm", "result": 7, "unit": "%"}, {"measurement": "inhibitory rate", "setting": "[12]; dosage 5 ppm", "result": 15, "unit": "%"}, {"measurement": "inhibitory rate", "setting": "[13]; dosage 1 ppm", "result": 9, "unit": "%"}, {"measurement": "inhibitory rate", "setting": "[13]; dosage 5 ppm", "result": 16, "unit": "%"}, {"measurement": "inhibitory rate", "setting": "[14]; dosage 1 ppm", "result": 0, "unit": "%"}, {"measurement": "inhibitory rate", "setting": "[14]; dosage 5 ppm", "result": 3, "unit": "%"}, {"measurement": "efficacy against black shank in potatoes", "setting": "black shank in potatoes; dosage 5 ppm", "result": 11, "unit": "%"}, {"measurement": "efficacy against black shank in potatoes", "setting": "black shank in potatoes; dosage 10 ppm", "result": 22, "unit": "%"}, {"measurement": "inhibitory rate", "setting": "[15]; dosage 1 ppm", "result": 0, "unit": "%"}, {"measurement": "inhibitory rate", "setting": "[15]; dosage 5 ppm", "result": 5, "unit": "%"}]}
{"compound": "zhongshengmycin [reference compound]", "values": [{"measurement": "inhibitory rate", "setting": "[1]; dosage 1 ppm", "result": 21, "unit": "%"}, {"measurement": "inhibitory rate", "setting": "[1]; dosage 5 ppm", "result": 48, "unit": "%"}, {"measurement": "Control effect (%)", "setting": "[2]; [17]", "result": 72, "unit": "%"}, {"measurement": "Control effect (%)", "setting": "soft rot in lettuces; [17]", "result": 65, "unit": "%"}, {"measurement": "efficacy against stem rot in sweet potatoes", "setting": "[3]; dosage 5 ppm, seed soaking", "result": 23, "unit": "%"}, {"measurement": "efficacy against stem rot in sweet potatoes", "setting": "[3]; dosage 10 ppm, seed soaking", "result": 38, "unit": "%"}, {"measurement": "inhibitory rate", "setting": "[4]; dosage 1 ppm", "result": 25, "unit": "%"}, {"measurement": "inhibitory rate", "setting": "[4]; dosage 5 ppm", "result": 46, "unit": "%"}, {"measurement": "inhibitory rate", "setting": "[5]; dosage 1 ppm", "result": 23, "unit": "%"}, {"measurement": "inhibitory rate", "setting": "[5]; dosage 5 ppm", "result": 43, "unit": "%"}, {"measurement": "inhibitory rate", "setting": "[6]; dosage 1 ppm", "result": 38, "unit": "%"}, {"measurement": "inhibitory rate", "setting": "[6]; dosage 5 ppm", "result": 55, "unit": "%"}, {"measurement": "Control effect (%)", "setting": "[7]; [17]", "result": 69, "unit": "%"}, {"measurement": "efficacy against bacterial wilt in tobacco", "setting": "[8]; dosage 5 ppm", "result": 24, "unit": "%"}, {"measurement": "efficacy against bacterial wilt in tobacco", "setting": "[8]; dosage 10 ppm", "result": 35, "unit": "%"}, {"measurement": "inhibitory rate", "setting": "[9]; dosage 1 ppm", "result": 19, "unit": "%"}, {"measurement": "inhibitory rate", "setting": "[9]; dosage 5 ppm", "result": 46, "unit": "%"}, {"measurement": "efficacy against fruit blotch in watermelons", "setting": "[10]; dosage 5 ppm, seed soaking", "result": 19, "unit": "%"}, {"measurement": "efficacy against fruit blotch in watermelons", "setting": "[10]; dosage 10 ppm, seed soaking", "result": 33, "unit": "%"}, {"measurement": "efficacy against soft rot in Chinese cabbages", "setting": "[11]; dosage 5 ppm, sprayed cut leaves, 48 h incubation", "result": 23, "unit": "%"}, {"measurement": "efficacy against soft rot in Chinese cabbages", "setting": "[11]; dosage 10 ppm, sprayed cut leaves, 48 h incubation", "result": 39, "unit": "%"}, {"measurement": "inhibitory rate", "setting": "[12]; dosage 1 ppm", "result": 32, "unit": "%"}, {"measurement": "inhibitory rate", "setting": "[12]; dosage 5 ppm", "result": 51, "unit": "%"}, {"measurement": "inhibitory rate", "setting": "[13]; dosage 1 ppm", "result": 30, "unit": "%"}, {"measurement": "inhibitory rate", "setting": "[13]; dosage 5 ppm", "result": 48, "unit": "%"}, {"measurement": "inhibitory rate", "setting": "[14]; dosage 1 ppm", "result": 29, "unit": "%"}, {"measurement": "inhibitory rate", "setting": "[14]; dosage 5 ppm", "result": 52, "unit": "%"}, {"measurement": "efficacy against black shank in potatoes", "setting": "black shank in potatoes; dosage 5 ppm", "result": 17, "unit": "%"}, {"measurement": "efficacy against black shank in potatoes", "setting": "black shank in potatoes; dosage 10 ppm", "result": 25, "unit": "%"}, {"measurement": "inhibitory rate", "setting": "[15]; dosage 1 ppm", "result": 28, "unit": "%"}, {"measurement": "inhibitory rate", "setting": "[15]; dosage 5 ppm", "result": 51, "unit": "%"}]}
